Data taken from patent US20140179681A1, “METHODS AND COMPOSITIONS OF TARGETED DRUG DEVELOPMENT” (priority 2010, published 2014).
Where two headings read alike, the source gives them in different places.

How the values were obtained:
[1] = target: T1, EGFR (Homo sapiens, UniProt P00533); assay: EGFR in-cell Western (ICW) screening protocol (EGFR inhibition assay); assay type: cell-based; design: ICW 1 / ICW 2 / ICW Avg: unit not given here; details: ICW assay; for ICW Avg: average of runs 1 and 2; for ICW 1: run 1; for ICW 2: run 2
T1 construct: host or cells: A431
Method in brief: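 Serum-starved A431 cells (2 h) were pretreated with compound for 4 h at 37° C, then stimulated with EGF (10 ng/ml final, or 6.6 or 12.5 ng/ml in some runs) for 10 min. After formaldehyde fixation, phospho-EGFR (Tyr1173, or Tyr1045 in some runs) and total EGFR were detected by in-cell Western immunostaining.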

[2] = tested on: epithelial carcinoma A431 cell line; assay: MTT Cell Proliferation Assay, A431 cells; assay type: cell-based; details: for MTT Assay IC50(A431/MDBK): ratio in parentheses: ratio MDBK IC50 / A431 IC50 (selectivity); for IC50: Homo sapiens; for MTT Follow-up: ratio in parentheses: ratio MDBK/A431
Method in brief: (§1)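 Viability was measured by mitochondrial MTT reduction after cells were exposed to compound for 3 days in reduced-serum medium. Inhibition was calculated per plate against 0.5% DMSO controls.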

[3] = tested on: MDBK line; assay: MTT Cell Proliferation Assay, MDBK cells; assay type: cell-based, bovine; details: for IC50: MDBK cells
Method in brief: as §1

[4] = A-431, A431 cells, first value of cell, read-out: MTT Assay IC50(A431/MDBK): A431
[5] = Bos taurus, MDBK, second value of cell, read-out: MTT Assay IC50(A431/MDBK): MDBK
[6] = A-431, follow-up MTT, A431 cells, first value, read-out: MTT Follow-up: A431
[7] = Bos taurus, MDBK, follow-up MTT, second value, read-out: MTT Follow-up: MDBK

T1 sequence (P00533 25-1210): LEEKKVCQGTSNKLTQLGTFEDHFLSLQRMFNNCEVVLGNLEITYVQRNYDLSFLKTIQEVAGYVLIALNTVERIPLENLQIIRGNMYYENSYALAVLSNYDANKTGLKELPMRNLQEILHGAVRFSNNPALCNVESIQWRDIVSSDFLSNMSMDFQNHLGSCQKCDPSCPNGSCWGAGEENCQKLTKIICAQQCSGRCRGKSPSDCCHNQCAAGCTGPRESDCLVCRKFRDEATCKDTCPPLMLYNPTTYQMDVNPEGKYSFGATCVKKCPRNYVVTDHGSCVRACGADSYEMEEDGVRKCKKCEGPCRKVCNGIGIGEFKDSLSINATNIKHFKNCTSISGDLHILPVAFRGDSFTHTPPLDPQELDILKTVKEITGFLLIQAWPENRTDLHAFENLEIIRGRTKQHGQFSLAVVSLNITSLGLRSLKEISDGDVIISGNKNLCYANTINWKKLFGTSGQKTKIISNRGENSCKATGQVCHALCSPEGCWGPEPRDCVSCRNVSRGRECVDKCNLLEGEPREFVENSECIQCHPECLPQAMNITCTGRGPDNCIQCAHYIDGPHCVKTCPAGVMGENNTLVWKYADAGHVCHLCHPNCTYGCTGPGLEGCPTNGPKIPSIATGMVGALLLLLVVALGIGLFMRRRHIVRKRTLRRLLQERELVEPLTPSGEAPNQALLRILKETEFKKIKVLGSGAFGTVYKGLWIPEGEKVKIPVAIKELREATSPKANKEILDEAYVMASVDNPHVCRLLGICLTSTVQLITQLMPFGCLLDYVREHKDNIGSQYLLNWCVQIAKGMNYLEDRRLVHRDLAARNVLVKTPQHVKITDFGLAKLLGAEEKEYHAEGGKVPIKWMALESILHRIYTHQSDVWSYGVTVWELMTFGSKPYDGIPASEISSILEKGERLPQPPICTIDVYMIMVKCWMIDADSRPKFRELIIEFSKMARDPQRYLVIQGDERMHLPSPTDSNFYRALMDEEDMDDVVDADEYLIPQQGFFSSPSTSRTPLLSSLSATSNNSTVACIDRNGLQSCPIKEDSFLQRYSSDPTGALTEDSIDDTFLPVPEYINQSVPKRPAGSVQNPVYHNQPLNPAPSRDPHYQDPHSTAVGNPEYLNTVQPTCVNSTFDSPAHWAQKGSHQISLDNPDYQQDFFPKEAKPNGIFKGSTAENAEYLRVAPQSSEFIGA

Compound	ICW Avg [1]	ICW 1 [1]	ICW 2 [1]	MTT Assay IC50(A431/MDBK): ratio in parentheses [2]	MTT Assay, MDBK percent at a single concentration ([3]; MDBK, at 100 μM)	IC50 [2, 4]	IC50 [3, 5]	IC50 [2, 6]	MTT Follow-up: ratio in parentheses [2]	IC50 [3, 7]	IC50 ([2]; A-431, A431 cells, normalized, read-out: MTT Assay IC50 (normalized): A431)	IC50 ([3]; Bos taurus, MDBK, normalized, read-out: MTT Assay IC50 (normalized): MDBK)	IC50 ([3]; second value of cell, read-out: MTT Assay IC50(A431/MDBK): MDBK)
Cc1ccc2[nH]c(Nc3nc(C)cc(-c4ccccc4)n3)nc(=O)c2c1 [compound 11315]	49.58	48.33	50.82	very selective	20%								
Cc1cc(C)nc(Nc2nc(-c3ccccc3)c3cc(Cl)ccc3n2)n1 [compound 11316]	50.76	47.95	53.57	0.45		44.4 µM	19.9 µM						
CCOc1ccc2nc(Nc3nc(=O)c(Cc4ccc(C)cc4)c(C)[nH]3)nc(C)c2c1 [compound 11442]	37.95	50.14	25.76			15.6 µM	118 µM						
COc1ccc2nc(Nc3nc(CSc4nnnn4-c4ccccc4)cc(=O)[nH]3)nc(C)c2c1 [compound 11448]	43.72	50.06	37.38	3.27		3.45 µM	11.8 µM						
FC(F)(F)c1cc(C(F)(F)F)nc(Nc2nc(-c3ccccc3)c3cc(Cl)ccc3n2)n1 [compound 11449]	37.11	48.00	26.22	0.84		6.41 µM	5.4 µM						
Cc1ccc2nc(Nc3nc(CSc4nnc(C)s4)cc(=O)[nH]3)nc(C)c2c1 [compound 11450]	50.68	53.35	48.02			6.98 µM	6.83 µM						
Cc1ccnc(Nc2nc(-c3ccccc3)c3cc(Cl)ccc3n2)n1 [compound 11455]	37.35	48.80	25.90	2.16		10.8 µM	23.4 µM						
COc1ccc2nc(Nc3nc(C)c(CCC(C)C)c(=O)[nH]3)nc(C)c2c1 [compound 11456]	35.54	33.74	37.33	0.94		5.84 µM	5.48 µM						
Cc1cc(C(F)(F)F)nc(Nc2nc(C)c3ccccc3n2)n1 [compound 11457]	28.58	38.67	18.48	1.79		27.4 µM	49 µM						
CCc1ccc2nc(Nc3nc(C)c(CCC(C)C)c(=O)[nH]3)nc(C)c2c1 [compound 11462]	77.32	77.14	77.49	3.19		14.6 µM	46.6 µM						
Cc1ccc2c(C)nc(Nc3nc(CSc4nnc(C)s4)cc(=O)[nH]3)nc2c1 [compound 11469]	25.25	26.79	23.71	1.13		10.1 µM	11.5 µM						
Cc1ccc2c(C)nc(Nc3nc(C(C)C)cc(=O)[nH]3)nc2c1 [compound 11472]	59.32	51.74	66.90			24.7 µM	19.4 µM						
COc1cccc(-c2cc(=O)[nH]c(Nc3nc(C)c4cccc(C)c4n3)n2)c1 [compound 11474]	40.45	32.19	48.71	7.98		3.57 µM	28.5 µM						
Cc1cc(C)c2nc(Nc3nc(CSc4nnc(C)s4)cc(=O)[nH]3)nc(C)c2c1 [compound 11476]	33.91	36.71	31.11	0.74		17.9 µM	13.3 µM						
CCCCc1c(C)nc(Nc2nc(C)c3cc(C)ccc3n2)[nH]c1=O [compound 11498]	49.32	42.15	56.48			5.39 µM	8.77 µM						
CCc1ccc2nc(Nc3nc(-c4cccc(OC)c4)cc(=O)[nH]3)nc(C)c2c1 [compound 11503]	32.21	25.88	38.53	2.83		6.71 µM	19 µM						
Cc1ccc2c(C)nc(Nc3nc(-c4ccccc4C)cc(=O)[nH]3)nc2c1 [compound 11511]	82.50	77.05	87.95					1.26 µM	0.45	0.57 µM			
Cc1nc(Nc2nc(CSc3nc4ccccc4[nH]3)cc(=O)[nH]2)nc2ccccc12 [compound 11582]	49.89	59.77	40.01			2.43 µM	2.44 µM	49.3 µM	1.13	55.9 µM			
Cc1ccc2nc(Nc3nc(CSc4nc5ccccc5s4)cc(=O)[nH]3)nc(C)c2c1 [compound 11592]	29.16	24.41	33.91	0.84		21.8 µM	18.3 µM						
Cc1ccc2nc(Nc3nc(=O)cc(-c4ccccc4)[nH]3)nc(C)c2c1 [compound 11601]	56.08	58.11	54.06			1.29 µM	2.62 µM	3.67 µM	13.23	48.6 µM	0.738 µM	2.61 µM	
COC(=O)Cc1cc(=O)nc(Nc2nc(C)c3ccccc3n2)[nH]1 [compound 11609]	27.23	28.83	25.63	0.68		36 µM	24.3 µM						
Cc1ccc2c(=O)nc(Nc3nc(C)cc(-c4ccccc4)n3)[nH]c2c1 [compound 11610]	31.67	22.50	40.84			4.98 µM	17.4 µM						
COc1ccc2nc(Nc3nc(CSc4ccc(C)cc4)cc(=O)[nH]3)nc(C)c2c1 [compound 11617]	29.18	27.71	30.66	3.28		6.01 µM	19.7 µM						
Cc1nc(Nc2nc(=O)cc(-c3ccccc3)[nH]2)nc2c(C)cccc12 [compound 11624]	26.08	22.54	29.61	1.59		14 µM	22.4 µM						
Cc1cc(C)nc(Nc2nc(-c3ccccc3)c3ccc(Cl)cc3n2)n1 [compound 11636]	62.56	61.28	63.84			26.8 µM							14.7 µM
COc1cccc2c(C)nc(Nc3nc(-c4ccccc4)cc(=O)[nH]3)nc12 [compound 11741]	68.05	66.55	69.55			2.44 µM	2.44 µM	51.5 µM	1.01	51.9 µM			
